Results: patent US20230085307A1, “PYRIDAZINONE COMPOUND AND HERBICIDE” (NISSAN CHEMICAL CORPORATION, priority 2019, published 2023)

What was measured:
[1] = system: late watergrass; assay: Test Example 1: herbicidal activity, application before weed generation under submerged conditions (Table 16, symbol A); type: in vivo, late watergrass (Echinochloa oryzicola); settings: 320 g/ha applied herbicide
Procedure, shortened: (§1)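 Alluvial soil was flooded to 4 cm depth, weed seeds were sown mixed and 2.5-leaf rice seedlings were transplanted. On sowing day, the compound's emulsion, diluted in water to a set dose, was applied to the water surface. Plants grew at 25–30 °C and were scored 0–5 after three weeks.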

[2] = system: oval-leafed pondweed; assay: Test Example 1: herbicidal activity, application before weed generation under submerged conditions (Table 16, symbol C); type: in vivo, oval-leafed pondweed (Monochoria vaginalis); settings: 320 g/ha applied herbicide
Procedure, shortened: as §1

[3] = system: Japanese bulrush; assay: Test Example 2: herbicidal activity, application during weed generation under submerged conditions (Table 17, symbol B); type: in vivo, Japanese bulrush (Schoenoplectus juncoides); settings: AAH 320 g/ha; application during weed generation, submerged conditions
Procedure, shortened: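 Herbicide emulsion, diluted with water to the chosen amount, is applied onto 4 cm floodwater over alluvial soil where the weeds were co-sown and raised at 25–30° C. Application timing: 1–2 leaves. Assessment: three weeks afterwards.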

[4] = system: barnyard grass; assay: Test Example 3: herbicidal effect by foliage application, Wagner pot (Table 18, symbol H); type: in vivo, barnyard grass (Echinochloa crus-galli); settings: for herbicidal effect on H: barnyard grass: amount of applied herbicide 320 g/ha
Procedure, shortened: (§2)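 Plants were sown in alluvial soil held under 0.1–0.5 cm standing water and grown 14 days in a greenhouse at 25–30 °C. An emulsifiable formulation, water-diluted to the set dose, was then sprayed onto the foliage, and effects were scored three weeks later using previously defined criteria.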

[5] = system: rice flat sedge; assay: Test Example 3: herbicidal effect by foliage application, Wagner pot (Table 18, symbol E); type: in vivo, rice flat sedge (Cyperus iria); settings: for herbicidal effect on E: rice flat sedge: amount of applied herbicide 320 g/ha
Procedure, shortened: as §2

[6] = system: green foxtail; assay: Test Example 4: herbicidal effect by soil treatment (Table 19, symbol G); type: in vivo, green foxtail (Setaria viridis); settings: for herbicidal effect on G: green foxtail: amount of applied herbicide 320 g/ha
Procedure, shortened: (§3)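 Herbicidal effect was rated 3 weeks after treatment, using the scoring criteria of an earlier test. The compound, formulated as an emulsion and diluted in water to a set herbicide amount, had been sprayed uniformly on soil over freshly sown seeds. Growth took place in a greenhouse at 25° C. to 30° C.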

[7] = system: barnyard grass; assay: Test Example 4: herbicidal effect by soil treatment (Table 19, symbol H); type: in vivo, barnyard grass (Echinochloa crus-galli); settings: for herbicidal effect on H: barnyard grass: amount of applied herbicide 320 g/ha
Procedure, shortened: as §3

[8] = system: velvetleaf; assay: Test Example 4: herbicidal effect by soil treatment (Table 19, symbol M); type: in vivo, velvetleaf (Abutilon theophrasti); settings: for herbicidal effect on M: velvetleaf: amount of applied herbicide 320 g/ha
Procedure, shortened: as §3

[9] = system: redroot pigweed; assay: Test Example 4: herbicidal effect by soil treatment (Table 19, symbol N); type: in vivo, redroot pigweed (Amaranthus retroflexus); settings: for herbicidal effect on N: redroot pigweed: amount of applied herbicide 320 g/ha
Procedure, shortened: as §3

[10] = system: chickweed; assay: Test Example 4: herbicidal effect by soil treatment (Table 19, symbol P); type: in vivo, common chickweed (Stellaria media); settings: for herbicidal effect on P: chickweed: amount of applied herbicide 320 g/ha
Procedure, shortened: as §3

[11] = system: southern crabgrass; assay: Test Example 5: herbicidal effect by foliage application, plastic box (Table 20, symbol F); type: in vivo, southern crabgrass (Digitaria ciliaris); settings: foliage application, AAH 320 g/ha; for F: southern crabgrass, herbicidal effect (criteria 0-5): evaluated three weeks after application
Procedure, shortened: (§4)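 Foliar spray test: emulsion formulation diluted in water to a set application rate, sprayed onto 14-day-old plants raised in diluvial soil at 25° C to 30° C under glass. Both herbicidal effect and crop effect rated visually three weeks later.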

[12] = system: green foxtail; assay: Test Example 5: herbicidal effect by foliage application, plastic box (Table 20, symbol G); type: in vivo, green foxtail (Setaria viridis); settings: foliage application, AAH 320 g/ha; for G: green foxtail, herbicidal effect (criteria 0-5): evaluated three weeks after application
Procedure, shortened: as §4

[13] = system: blackgrass; assay: Test Example 5: herbicidal effect by foliage application, plastic box (Table 20, symbol J); type: in vivo, blackgrass (Alopecurus myosuroides); settings: foliage application, AAH 320 g/ha; for J: blackgrass, herbicidal effect (criteria 0-5): evaluated three weeks after application
Procedure, shortened: as §4

[14] = system: Italian ryegrass; assay: Test Example 5: herbicidal effect by foliage application, plastic box (Table 20, symbol K); type: in vivo, Italian ryegrass (Lolium multiflorum); settings: foliage application, AAH 320 g/ha; for K: Italian ryegrass, herbicidal effect (criteria 0-5): evaluated three weeks after application
Procedure, shortened: as §4

[15] = system: redroot pigweed; assay: Test Example 5: herbicidal effect by foliage application, plastic box (Table 20, symbol N); type: in vivo, redroot pigweed (Amaranthus retroflexus); settings: foliage application, AAH 320 g/ha; for N: redroot pigweed, herbicidal effect (criteria 0-5): evaluated three weeks after application
Procedure, shortened: as §4

[16] = system: chickweed; assay: Test Example 5: herbicidal effect by foliage application, plastic box (Table 20, symbol P); type: in vivo, common chickweed (Stellaria media); settings: foliage application, AAH 320 g/ha; for P: chickweed, herbicidal effect (criteria 0-5): evaluated three weeks after application
Procedure, shortened: as §4

Row | Compound | Herbicidal effect on A: late watergrass (grade 0-5) [1] | Herbicidal effect on C: oval-leafed pondweed (grade 0-5) [2] | herbicidal effect rating, B: Japanese bulrush [3] | herbicidal effect on H: barnyard grass [4] | herbicidal effect on E: rice flat sedge [5] | herbicidal effect on G: green foxtail [6] | herbicidal effect on H: barnyard grass [7] | herbicidal effect on M: velvetleaf [8] | herbicidal effect on N: redroot pigweed [9] | herbicidal effect on P: chickweed [10] | F: southern crabgrass, herbicidal effect (criteria 0-5) [11] | G: green foxtail, herbicidal effect (criteria 0-5) [12] | J: blackgrass, herbicidal effect (criteria 0-5) [13] | K: Italian ryegrass, herbicidal effect (criteria 0-5) [14] | N: redroot pigweed, herbicidal effect (criteria 0-5) [15] | P: chickweed, herbicidal effect (criteria 0-5) [16] | also measured
1 | C#CCOc1ccc(-c2sc3ccccc3c2-c2c(O)c(C)nn(C)c2=O)cc1 [1-136] | 3 (Herbicidal rate of 40% or more and less than 70%) | 0 (Herbicidal rate of 5% or less (almost no effect)) | 2 (Herbicidal rate of 20% or more and less than 40%) | – | – | – | – | – | – | – | – | – | – | – | – | – | herbicidal effect on H (barnyard grass), rating 0-5 ([4]; 320 g/ha): 5 (Herbicidal rate of 90% or more (almost completely withered)); herbicidal effect on E (rice flat sedge), rating 0-5 ([5]; 320 g/ha): 5 (Herbicidal rate of 90% or more (almost completely withered)); G: green foxtail, herbicidal effect rating ([6]; AAH 320 g/ha): 4 (Herbicidal rate of 70% or more and less than 90%); H: barnyard grass, herbicidal effect rating ([7]; AAH 320 g/ha): 4 (Herbicidal rate of 70% or more and less than 90%); M: velvetleaf, herbicidal effect rating ([8]; AAH 320 g/ha): 3 (Herbicidal rate of 40% or more and less than 70%); N: redroot pigweed, herbicidal effect rating ([9]; AAH 320 g/ha): 4 (Herbicidal rate of 70% or more and less than 90%); P: chickweed, herbicidal effect rating ([10]; AAH 320 g/ha): 1 (Herbicidal rate of 5% or more and less than 20%); F: southern crabgrass, herbicidal effect ([11]; three weeks after application): 0 (Herbicidal rate of 5% or less (almost no effect)); G: green foxtail, herbicidal effect ([12]; three weeks after application): 5 (Herbicidal rate of 90% or more (almost completely withered)); J: blackgrass, herbicidal effect ([13]; three weeks after application): 1 (Herbicidal rate of 5% or more and less than 20%); K: Italian ryegrass, herbicidal effect ([14]; three weeks after application): 5 (Herbicidal rate of 90% or more (almost completely withered)); N: redroot pigweed, herbicidal effect ([15]; three weeks after application): 4 (Herbicidal rate of 70% or more and less than 90%); P: chickweed, herbicidal effect ([16]; three weeks after application): 5 (Herbicidal rate of 90% or more (almost completely withered))
2 | Cc1nn(C)c(=O)c(-c2c(-c3ccc(C#N)cc3)sc3ccc(F)cc23)c1O [2-340] | 5 (Herbicidal rate of 90% or more (almost completely withered)) | 4 (Herbicidal rate of 70% or more and less than 90%) | 4 (Herbicidal rate of 70% or more and less than 90%) | 5 (Herbicidal rate of 90% or more (almost completely withered)) | 5 (Herbicidal rate of 90% or more (almost completely withered)) | 5 (Herbicidal rate of 90% or more (almost completely withered)) | 5 (Herbicidal rate of 90% or more (almost completely withered)) | 5 (Herbicidal rate of 90% or more (almost completely withered)) | 5 (Herbicidal rate of 90% or more (almost completely withered)) | 5 (Herbicidal rate of 90% or more (almost completely withered)) | 5 (Herbicidal rate of 90% or more (almost completely withered)) | 5 (Herbicidal rate of 90% or more (almost completely withered)) | 5 (Herbicidal rate of 90% or more (almost completely withered)) | 5 (Herbicidal rate of 90% or more (almost completely withered)) | 5 (Herbicidal rate of 90% or more (almost completely withered)) | 5 (Herbicidal rate of 90% or more (almost completely withered)) | –
3 | C=CCOC(=O)Oc1c(C)nn(C)c(=O)c1-c1c(-c2ccc(OC(F)F)cc2)sc2ccc(F)cc12 [2-294] | 5 (Herbicidal rate of 90% or more (almost completely withered)) | 4 (Herbicidal rate of 70% or more and less than 90%) | 3 (Herbicidal rate of 40% or more and less than 70%) | 5 (Herbicidal rate of 90% or more (almost completely withered)) | 5 (Herbicidal rate of 90% or more (almost completely withered)) | 5 (Herbicidal rate of 90% or more (almost completely withered)) | 5 (Herbicidal rate of 90% or more (almost completely withered)) | 5 (Herbicidal rate of 90% or more (almost completely withered)) | 5 (Herbicidal rate of 90% or more (almost completely withered)) | 5 (Herbicidal rate of 90% or more (almost completely withered)) | 5 (Herbicidal rate of 90% or more (almost completely withered)) | 5 (Herbicidal rate of 90% or more (almost completely withered)) | 4 (Herbicidal rate of 70% or more and less than 90%) | 5 (Herbicidal rate of 90% or more (almost completely withered)) | 5 (Herbicidal rate of 90% or more (almost completely withered)) | 5 (Herbicidal rate of 90% or more (almost completely withered)) | –
